From patent publication US6686344B1, “Organic-arsonic compounds” (Paker Hughes Institute, priority 2003, dated 2004) come the findings set out here.

The test system of data set [1] is MOLT-3 (T-lineage ALL). In words: MTT cytotoxicity assay, MOLT-3. In kind it is cell-based. The conditions noted are these: Homo sapiens, MOLT-3 cells, 24-36 hours incubation. Here is the method:
(§1) The cytotoxicity of compound II was evaluated against two acute lymphoblastic leukemia (ALL) cell lines, NALM-6 (B-lineage ALL), and MOLT-3 (T-lineage ALL) using MTT (3-[4,5-dimethylthiazol-2-yl]-2,5-diphenyl tetrazolium bromide) assay (Boehringer Mannheim Corp., Indianapolis, Ind. The human leukemic cell lines (NALM-6, and MOLT-3) were obtained from the American Type Culture Collection and maintained as a continuous cell line in Dulbecco's modified Eagles's medium supplemented with 10% fetal bovine serum and antibiotics. Briefly, exponentially growing cells were seeded into a 96-well plate at a density of 2.5×10^4 cells/well and incubated for 36 hours at 37° C. prior to exposure to the compound. On the day of treatment, culture medium was carefully aspirated from the wells and replaced with fresh medium containing compound II at concentrations ranging from 0.1 to 250 μM. Triplicate wells were used for each treatment.
(§2) The cells were incubated with compound II for 24-36 hours at 37° C. in a humidified 5% CO2 atmosphere. […] The absorbance of each well was measured in a microplate reader (Labsystems) at 540 nm and a reference wavelength of 690 nm. […] The percent survival was calculated using the formula: [formula]
(§3) The IC50 values for cytotoxic activity were determined using Graph-pad Prism software, version 2.0 (San Diego, Calif., USA) and are shown below in Table 1.

Data set [2] relates to NALM-6 (B-lineage ALL). In words: MTT cytotoxicity assay, NALM-6. To be noted: Homo sapiens, NALM-6 cells, 24-36 hours incubation. It is filed as cell-based. The protocol:
as §1, §2, §3
A general note: Tetrazolium assays rely on reduction of a dye to a coloured formazan, in cell work by metabolically active cells.

Broadly, the IC50 is the point on the concentration scale where inhibition reaches its midpoint. Lower therefore signals greater potency. In general, melting point refers to the temperature of the solid-liquid transition. For `O=[As](O)(O)c1ccc(N=Nc2ccc(Nc3nc(C(Cl)(Cl)Cl)nc4ccccc34)cc2)cc1` [Compound II, 2-Trichloromethyl-4-4-[4′-(4″-phenylazo)phenylarsonic Acid]-aminoquinazoline], the melting point is greater than 300 °C. This compound had an IC50 in data set [1] of 2 ± 0.8 µM. This compound also registered a 50% inhibitory concentration (IC50) in data set [2] of 1.1 ± 0.5 µM.
